Test results: patent US8318779B2, “Lysine related derivatives as HIV aspartyl protease inhibitors” (priority 2006, dated 2012)
Read-outs that look alike come from different tables or passages of the source.

Assays:
[1] = tested on: clinically isolated HIV strain r13363 harboring several mutations; experiment: Cellular anti-viral assay in HIV-infected MT4-LTR-EGFP cells (GFP reporter), clinically isolated mutant strain; assay type: cell-based
Procedure: Because of the increasing emergence of drug resistant HIV strains, the present compound was also tested for its potency against a clinically isolated HIV strain harboring several mutations. These mutations are associated with resistance to protease inhibitors and result in viruses that show various degrees of phenotypic cross-resistance to the currently commercially available drugs such as for instance saquinavir, ritonavir, nelfinavir, indinavir and amprenavir. The viral strain tested R13363 contains mutations as indicated below.
(§1) The cellular assay was performed according to the following procedure.
(§2) HIV- or mock-infected MT4-LTR-EGFP cells were incubated for three days in the presence of various concentrations of the compound according to the invention. As reference compounds APV, IDV, RTV, NFV, TPV and LPV were used. Upon infection, the viral tat protein activates the GFP reporter. At the end of the incubation period, the GFP signal was measured. In the virus control samples (in the absence of any inhibitor) the maximal fluorescent signal was obtained. The inhibitory activity of the compounds were monitored on the virus-infected cells and were expressed as EC50. These values represent the amount of the compound required to protect 50% of the cells from virus infection.

[2] = tested on: wild type laboratory HIV strain (WT IIIB-2-001); experiment: Cellular anti-viral assay in HIV-infected MT4-LTR-EGFP cells (GFP reporter), wild type strain; assay type: cell-based
Procedure: The compound having structural formula (III) was tested in a cellular assay using the MT4-LTR-EGFP cells for anti-viral activity.
as §1, §2

[3] = Human immunodeficiency virus 1, read-out: HIV-AVE-MT4LTREGFP-r13363 pEC50 (converted)
[4] = Human immunodeficiency virus 1, IIIB, read-out: HIV-AVE-MT4LTREGFP-IIIB pEC50 (converted)

| Structure (SMILES) | EC50 [1, 3] | EC50 [2, 4] | other results |
| --- | --- | --- | --- |
| Cc1cccc(C)c1OCC(=O)N[C@@H](Cc1ccccc1)[C@@H](O)C[C@H](Cc1ccccc1)NC(=O)[C@H](C(C)C)N1CCCNC1=O [LPV, lopinavir] | 631 nM | 12.6 nM |  |
| CC(C)CN(C[C@@H](O)[C@H](Cc1ccccc1)NC(=O)O[C@H]1CCOC1)S(=O)(=O)c1ccc(N)cc1 [APV, amprenavir] | 10000 nM | 50.1 nM |  |
| Cc1c(O)cccc1C(=O)N[C@@H](CSc1ccccc1)[C@H](O)CN1C[C@H]2CCCC[C@H]2C[C@H]1C(=O)NC(C)(C)C [NFV, nelfinavir] | 1580 nM | 63.1 nM |  |
| CC(C)(C)NC(=O)[C@@H]1CN(Cc2cccnc2)CCN1C[C@@H](O)C[C@@H](Cc1ccccc1)C(=O)N[C@H]1c2ccccc2C[C@H]1O [IDV, indinavir] | 398 nM | 39.8 nM |  |
| CC(C)c1nc(CN(C)C(=O)N[C@H](C(=O)N[C@@H](Cc2ccccc2)C[C@H](O)[C@H](Cc2ccccc2)NC(=O)OCc2cncs2)C(C)C)cs1 [RTV, ritonavir] | 10000 nM | 63.1 nM |  |
| COC(=O)N[C@H](C(=O)NCCCC[C@@H](CO)N(CC(C)C)S(=O)(=O)c1ccc(CN)cc1)C(c1ccccc1)c1ccccc1 [formula (III), (S)—(S)-(1-{5-[(4-Aminomethyl-benzenesulfonyl)-isobutyl-amino]-6-hydroxy-hexylcarbamoyl}-2,2-diphenyl-ethyl)-carbamic acid methyl ester] |  |  | EC50 ([1]; Human immunodeficiency virus 1, 72 h, read-out: pEC50-r13363 (converted)): 31.6 nM; EC50 ([2]; Human immunodeficiency virus 1, 72 h, wild type (IIIB), MT4-LTR-EGFP cells, three days incubation, read-out: pEC50—IIIB (converted)): 31.6 nM; anti-HIV activity against wild type laboratory HIV strain ([2]; MT4-LTR-EGFP cells, WT IIIB-2-001): potent anti-HIV activity |
| CCC[C@@]1(CCc2ccccc2)CC(O)=C([C@H](CC)c2cccc(NS(=O)(=O)c3ccc(C(F)(F)F)cn3)c2)C(=O)O1 [TPV] |  |  | HIV-AVE-MT4LTREGFP-r13363 pEC50 ([1]; reference compounds, clinically isolated HIV strain r13363, MT4-LTR-EGFP cells): 6.3; HIV-AVE-MT4LTREGFP-IIIB pEC50 ([2]; reference compounds, wild type (IIIB), MT4-LTR-EGFP cells): 6.3 = |
